According to the PolyMetriX glass transition set:
± gives the standard deviation of the reports.

| Compound | glass transition temperature [°C] |
| --- | --- |
| *CCCCCCCCCOC(=O)c1ccc(C(=O)O*)cc1 (repeat unit) | 35.00 |
| *CCOCCOCCOC(=O)/C=C/C(=O)NCCCCCCNC(=O)/C=C/C(=O)O* (repeat unit) | 65.00 |
| *CC(O*)c1ccccc1 (repeat unit) | 34.00 |
| *CC(*)(C)C(=O)OCCCN(CCO)c1ccc(/N=N/c2ccc([N+](=O)[O-])cc2)cc1 (repeat unit) | 131.00 |
| *OC(=O)OCCCCCCOC(=O)OC1COC2C(*)COC12 (repeat unit) | 27.50 |
| *NC(CCC(=O)OCCCCCCCCCC)C(*)=O (repeat unit) | -62.00 |
| *CCCCOC(=O)OCCCCCCOC(=O)OCCCCn1c(=O)c2cc3c(=O)n(*)c(=O)c3cc2c1=O (repeat unit) | 37.00 |
| *Nc1ccc(Cc2ccc(NC(=O)CCCCCCCC(*)=O)cc2)cc1 (repeat unit) | 140.00 |
| *CC(*)OC(=O)c1ccc(C)cc1 (repeat unit) | 73.50 |
| *c1ccc2c(c1)C(=O)N(c1ccc(Sc3ccc(Sc4ccc(Sc5ccc(Sc6ccc(N7C(=O)c8ccc(C(*)(C(F)(F)F)C(F)(F)F)cc8C7=O)cc6)cc5)cc4)cc3)cc1)C2=O (repeat unit) | 216.00 |
| */C=C/C1CCC(*)C1 (repeat unit) | 31.00 |
| *CC(C)CC(*)(C)C(=O)OC (repeat unit) | 16.00 |
| *c1ccc(Oc2ccc3ccccc3c2-c2c(Oc3ccc(N4C(=O)c5ccc(NC(=O)Nc6ccc(-c7cc(-c8ccc(-c9ccccc9)cc8)cc(-c8ccc(NC(=O)Nc9ccc%10c(c9)C(=O)N(*)C%10=O)cc8)n7)cc6)cc5C4=O)cc3)ccc3ccccc23)cc1 (repeat unit) | 302.00 |
| *Oc1ccc(CC(NC(=O)Cc2ccc(OC(=O)CCCCCCC(*)=O)cc2)C(=O)OCCCCCCCC)cc1 (repeat unit) | 22.00 |
| *CCN(*)CC[Si](C)(C)C (repeat unit) | -64.80 |
| *c1ccc(Oc2c(C)cc(C(c3cccnc3)c3cc(C)c(Oc4ccc(N5C(=O)CC(Nc6ccc(Cc7ccc(NC8CC(=O)N(*)C8=O)cc7)cc6)C5=O)cc4)c(C)c3)cc2C)cc1 (repeat unit) | 201.00 |
| *CCCCCCNC(=O)CCCC(=O)O* (repeat unit) | -18.00 |
| *CCCCCCCCCCCOC(=O)c1ccc2cc(C(=O)O*)ccc2c1 (repeat unit) | 43.00 |

| Compound | glass transition temperature [°C] |
| --- | --- |
| *OS(=O)(=O)c1cc(C)c(*)c(C)c1 (repeat unit) | 153.00 |
| *CC(*)(C)C(=O)OC1(C)CCOC(=O)C1 (repeat unit) | 110.00 |
| *OP(=O)(Oc1ccccc1)OC(CCl)COc1ccc(S(=O)(=O)c2ccc(OCC(*)CCl)cc2)cc1 (repeat unit) | 48.00 |
| *CC(*)c1ccc(COCCCCO)cc1 (repeat unit) | 20.00 |
| *CCCCCCOC(=O)OCCCCCCCCCCOC(=O)OCCCCCCn1c(=O)c2cc3c(=O)n(*)c(=O)c3cc2c1=O (repeat unit) | -2.00 |
| */C=C/C1CC(*)C(C(=O)OC)C1 (repeat unit) | 65.00 |
| *CC(*)(C)C(=O)OCC1CC(NC(=O)OC(C)(C)C)CN1C(=O)OC(C)(C)C (repeat unit) | 127.00 |
| *CC(*)c1ccccc1C(=O)NC (repeat unit) | 189.00 |
| *CCCCCC(=O)Nc1ccc(Cc2ccc(NC(=O)CCCCCN3C(=O)c4ccc(C(=O)c5ccc6c(c5)C(=O)N(*)C6=O)cc4C3=O)cc2)cc1 (repeat unit) | 187.00 |
| *Nc1cc(NC(=O)C(*)=O)ccc1C (repeat unit) | -54.6 |
| *CC(*)(C)C(=O)OCC#N (repeat unit) | 91.00 |
| *CC(*)c1ccc(C(=O)N(CC)CC)cc1 (repeat unit) | 102.00 |
| *N=P(*)(CCC)CCC (repeat unit) | 10.00 |
| *CC(*)C(=O)OCC(F)(F)C(F)(F)C(F)(F)C(F)(F)C(F)(F)C(F)(F)C(F)(F)F (repeat unit) | -17.00 |
| *CC(*)C(=O)OCCCCCCCCCCCCCCCCCC (repeat unit) [Poly(octadecyl acrylate)] | -2.33 ± 57 |
| *CCCCCCCCCCN/C(C)=N/* (repeat unit) | 80.00 |
| *OP(=O)(Oc1ccc(NC(=O)Oc2ccc(C(C)(C)c3ccc(OC(=O)Nc4ccc(*)cc4)cc3)cc2)cc1)c1ccccc1 (repeat unit) | 34.00 |

Next, values leading:

| glass transition temperature [°C] | Compound |
| --- | --- |
| 211.00 | *C(=O)Nc1ccc(Oc2cccc(NC(=O)c3ccc4c(c3)C(=O)N(c3ccc(Oc5cccc(N6C(=O)c7ccc(*)cc7C6=O)c5)cc3)C4=O)c2)cc1 (repeat unit) |
| 230.40 | *Oc1ccc(S(=O)(=O)c2ccc(Oc3ccc(C(C)(C)c4ccc(*)c(N)c4)cc3N)cc2)cc1 (repeat unit) |
| 275.50 ± 3.5 | *C(=O)c1ccc2c(c1)C(=O)N(c1cccc(S(=O)(=O)c3cccc(N4C(=O)c5ccc(*)cc5C4=O)c3)c1)C2=O (repeat unit) |
| 93.00 | */C(=C/c1cc(OCCCCCCCC)c(/C=C(\c2ccccc2)c2ccc3c(c2)Sc2ccc(*)cc2S3)cc1OCCCCCCCC)c1ccccc1 (repeat unit) |
| 52.00 | *Oc1ccc(CC(NC(=O)CCc2ccc(OC(=O)CCCC(*)=O)cc2)C(=O)OC(C)CC)cc1 (repeat unit) |
| 210.00 | *Oc1ccc(Oc2ccc(C(=O)c3cccc(NC(=O)c4ccc(C(=O)Nc5cccc(C(=O)c6ccc(*)cc6)c5)cc4)c3)cc2)cc1 (repeat unit) |
| 132.00 | *NC(CCC(=O)Nc1ccc(N(c2ccccc2)c2ccccc2)cc1)C(*)=O (repeat unit) |
| 139.00 | *C(c1ccc(N(C)C)cc1)C(*)c1ccc([N+](=O)[O-])cc1 (repeat unit) |
| 316.00 | *c1ccc(Oc2cc3ccccc3cc2Oc2ccc(-n3c(=O)c4cc5c(=O)n(*)c(=O)c5cc4c3=O)cc2)cc1 (repeat unit) |
| 175.00 | *c1ccc(OCCCCCCN(CC)c2ccc(C(C#N)=C(C#N)C#N)cc2)c(-c2cc(-c3ccccc3)c3cc(Oc4ccc5nc(*)cc(-c6ccccc6)c5c4)ccc3n2)c1 (repeat unit) |
| 306.00 | *c1ccc(-c2cnc3ccc(Oc4ccc5ncc(*)nc5c4)cc3n2)cc1 (repeat unit) |
| 253.00 | *c1ccc(C(C)(C)c2ccc(C(C)(C)c3ccc(N4C(=O)c5ccc(Oc6cccc7c(Oc8ccc9c(c8)C(=O)N(*)C9=O)cccc67)cc5C4=O)cc3)cc2)cc1 (repeat unit) |
| 213.00 | *Oc1ccc(C(c2ccccc2)(c2ccccc2)c2ccc(OC(*)=O)cc2)cc1 (repeat unit) |
| 206.00 | *Oc1ccc(S(=O)(=O)c2ccc(Oc3ccc(-c4ccc(Oc5ccc(C(=O)c6ccc(*)cc6)cc5)cc4)cc3)cc2)cc1 (repeat unit) |
| 233.00 | *C(=O)Nc1ccc(-c2ccc(NC(=O)c3ccc4c(c3)C(=O)N(c3ccc(NC(=O)Nc5ccc(N6C(=O)c7ccc(*)cc7C6=O)cc5)cc3)C4=O)cc2)cc1 (repeat unit) |
| 163.00 | *c1ccc(N/C=N/c2ccc(S(*)(=O)=O)cc2)cc1 (repeat unit) |
| 267.00 | *c1ccc(S(=O)(=O)c2ccc(N3C(=O)c4ccc(Oc5ccc(C(C)(C)c6ccc(Oc7ccc8c(c7)C(=O)N(*)C8=O)cc6)cc5)cc4C3=O)cc2)cc1 (repeat unit) |

| glass transition temperature [°C] | Compound |
| --- | --- |
| 24.00 | *O[Si](C)(C)OC(CCl)COc1ccc(C(C)(C)c2ccc(OCC(*)CCl)cc2)cc1 (repeat unit) |
| 294.8 ± 1.1 | *C(=O)c1ccc2c(c1)C(=O)N(c1cc(N3C(=O)c4ccc(*)cc4C3=O)cc(C(F)(F)F)c1)C2=O (repeat unit) |
| 306.00 | *c1ccc(-c2cnc3cc(Oc4ccc5nc(*)cnc5c4)ccc3n2)cc1 (repeat unit) |
| 163.00 | */C=C/c1cc(OCC(CC)CCCC)c(*)cc1-c1ccc(N(c2ccc(OC)cc2)c2ccc(OC)cc2)cc1 (repeat unit) |
| 218.00 | *Oc1c(-c2ccccc2)cc(*)cc1-c1ccc(C)cc1 (repeat unit) |
| 334.00 | *C(=O)Nc1cccc(NC(=O)c2ccc3c(c2)C(=O)N(c2ccc(-c4sc(-c5ccc(N6C(=O)c7ccc(*)cc7C6=O)cc5)c(-c5ccccc5)c4-c4ccccc4)cc2)C3=O)c1 (repeat unit) |
| -8.00 | *O[Si](C)(C)c1cccc(C(F)(F)C(F)(F)C(F)(F)c2cccc([Si](*)(C)C)c2)c1 (repeat unit) |
| 201.00 | */C(=C/c1cc(OC)c(/C=C(\c2ccc(F)cc2)c2ccc(-c3ccc(*)cc3)cc2)cc1OC)c1ccc(F)cc1 (repeat unit) |
| 246.63 | *Oc1c(C)cc(-c2cc(C)c(Oc3ccc(C(=O)c4ccc(*)cc4)cc3)c(C)c2)cc1C (repeat unit) |
| 210.00 | *c1ccc2c(c1)C(=O)N(c1cc(OCCN(CC)c3ccc(/N=N/c4ccc([N+](=O)[O-])cc4)cc3)cc(N3C(=O)c4ccc(C(*)(C(F)(F)F)C(F)(F)F)cc4C3=O)c1)C2=O (repeat unit) |
| 350.00 | *c1ccc(Oc2ccc(N3C(=O)CC4C(CC5C(=O)N(*)C(=O)C54)C3=O)cc2)cc1 (repeat unit) |
| 72.00 | *CC(*)(C)C(=O)Oc1ccc(C(=O)Oc2ccc(C(=O)c3ccccc3)cc2)cc1 (repeat unit) |
| 253.00 | *Oc1ccc(C(c2ccc(OC(*)=O)cc2)C2CC3CC2C2C4CCC(C4)C32)cc1 (repeat unit) |
| 277.00 | *C1C(*)C2CC1C(C(=O)OCc1ccccc1)C2C(=O)OCc1ccccc1 (repeat unit) |
| 96.00 | *CCCCCCCCCCCC(=O)Oc1ccc(C2(c3ccc(OC(=O)c4ccc5c(c4)C(=O)N(*)C5=O)cc3)CCCCC2)cc1 (repeat unit) |
| 56.00 | *CCCCCCOc1ccc(C(=O)N(C(=O)c2ccc(O*)cc2)c2cccc3ccccc23)cc1 (repeat unit) |
